The test system of series [1] is calpain (Calcium Activated Neutral Protease). Nature of the series: Calpain inhibition. Format: biochemical. To be noted: incubated 30 minutes at 37° C.; tested at 20 μM, 2 μM, 200 nM. The procedure:
The percent inhibition of one inhibitor, Acetyl-Leucyl-Leucyl-Phenylalanyl-α-(4-oxy-dihydrofuran-2-one) methyl ketone, on calpain (Calcium Activated Neutral Protease) was determined as follows. A 50 mM Hepes, 10 mM calcium chloride, 5 mM cysteine, 1 mM β-mercaptoethanol, pH 7.5 buffer solution was prepared. The enzyme was activated for 1 minute in the buffer solution at room temperature. Inhibitor was prepared as stock solution in dimethylformamide. Inhibitor and enzyme/buffer were incubated for 30 minutes at 37° C. Final concentrations of inhibitor were 20 μM, 2 μM, and 200 nM. Enzyme activity was followed with 200 μM Boc-Valnyl-Leucyl-Lysine-AFC substrate by the release of free fluorescent detecting group over minutes at 37° C., as compared to the control.

In series [2] the target is T1, Cathepsin B, purified from human liver (Homo sapiens, UniProt P07858).
T1 construct: Cathepsin B, purified from human liver; purchased Enzyme Systems Products (Dublin, Calif.); host or cells: human liver (tissue-purified)
Nature of the series: In vitro evaluation of inhibitors with purified cathepsin B. Format: biochemical. To be noted: purified cathepsin B; read-out: IC50 Cat B. The method, then: Enzyme: Cathepsin B, purified from human liver, is from Enzyme Systems Products (Dublin, Calif.). The activity is 50 mU per ml at 30° C., in 52 mM sodium phosphate, pH 6.2, 31 mM DTT, 2.1 mM EDTA, with 0.2 mM Z—Arg—Arg-7-amino-4-trifluoromethyl-coumarin as a substrate. Specific activity is 8330 mU per mg protein. (1 mU=1 nmol per min.)
Substrate Boc—Leu—Arg—Arg-7-amino-4-trifluoromethyl-coumarin-2HBr is from Enzyme Systems Products (Dublin, Calif.) and is known to be a specific substrate for cathepsin B. A 20 mM solution is made in DMF and stored at […].
Candidate inhibitors are dissolved in DMF and diluted to 20 mM and stored at […]. Dilutions are made in assay buffer.
The percent inhibition and the inhibitor concentration at which the enzyme is 50% inhibited (IC50) are determined as follows. Five μl of assay buffer (50 mM potassium phosphate pH 6.2, 2 mM EDTA, 5 mM DTT) on ice for 30 min. The inhibition is initiated by the addition of […] inhibitor each to the 480 μl aliquots. The 485 μl aliquot with enzyme is used as a control and thus receives no inhibitor. The enzyme/inhibitor mixtures are incubated 10 min. on ice and assayed for cathepsin B activity as follows:
Cathepsin B assay: To 490 μl of pre-incubated inhibitor/enzyme mixtures in assay buffer in 0.5 ml cuvette at 37° is added 10 μl of the substrate. Final inhibitor concentrations become 2000 nM, 200 nM, and 20 nM for the 200 μM, 20 μM and 2 μM stock concentrations, respectively. Activity is followed by release of free AFC over 5 min. The change in fluorescence is (fluorescence units at t=6)−(fluorescence units at t=1) with a Perkin-Elmer LS-5B spectrofluorometer (ex=400 nm, em=505 nm). The percent inhibition is determined by comparing the change in fluorescence units of the three sample concentrations of inhibited enzyme to the change in fluorescence units of the control enzyme. The percent inhibition is calculated as:
100−(fl. units of sample/fl. units of control×100).
The IC50 is ascertained by plotting percent inhibition vs. inhibitor concentration on the log scale. The IC50 is the concentration of the inhibitor (nM) at which the enzyme is inhibited by 50%.

The nature of series [3]: physchem. The conditions noted are these: 20 °C, water, thermodynamic from solid.
In series [4] the test system is malarial inhibition. The series can be described thus: Another test of malarial inhibition.
In series [5] the target is T2, Cathepsin H (Homo sapiens, UniProt P09668).
T2 sequence (P09668 98-335): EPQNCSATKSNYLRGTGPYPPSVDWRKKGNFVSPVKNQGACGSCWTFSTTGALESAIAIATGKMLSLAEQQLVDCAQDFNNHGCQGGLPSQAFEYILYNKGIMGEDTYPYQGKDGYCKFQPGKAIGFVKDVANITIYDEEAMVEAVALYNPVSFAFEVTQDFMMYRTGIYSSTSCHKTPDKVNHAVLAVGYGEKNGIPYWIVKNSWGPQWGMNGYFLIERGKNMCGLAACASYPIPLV
The series can be described thus: Cathepsin H inhibition. The class given is biochemical.

For series [6], the system named is T. cruzi. The series can be described thus: Inhibition of T. cruzi in infected cells, cell line J774. The class given is cell-based. The conditions noted are these: days before cell monolayer is destroyed by infection; 20 μM, daily change of medium plus inhibitor. The method, then: (§1) Survival time is measured in days before the cell monolayer is destroyed by the infection. Irradiated BHK and J774 cells (six well plates) were infected with T. cruzi and simultaneously treated with 20 μM (3 ml total volume) with daily change of culture medium+plus inhibitor).
(§2) Cultivation and preparation of T. cruzi. Cloned and uncloned populations were derived from the strains Brasil, and CA-I and are cryopreserved in liquid nitrogen. Axenically cultured epimastigotes are maintained in exponential growth phase by weekly passage in Brain Heart Infusion-Tryptose medium (BHT media as given in Cazzulo, Cazzulo, Martinez, and Cazzulo, Some Kinetic Properties of a Cysteine Proteinase (Cruzipain) from Trypanosoma Cruzi. 33 Mol. Biochem. Parasitol. 33-42 (1990)), supplemented with […] 10% (v/v) heat inactivated fetal calf serum (FCS). Different host cell lines (J774 mouse macrophage, BHK, etc.) are cultured with RPMI-1640 supplemented with 5% FCS at 37° in a humidified atmosphere containing 5% CO2. Trypomastigotes liberated from the host cells are used to infect new cultures for serial maintenance of the parasite in cell culture. The protocols used for the in vitro assays of cysteine protease inhibitors are essentially as described by Harth, Andrews, Mills, Engel, Smith, and McKerrow, Peptide-Fluoromethyl Ketones Arrest Intracellular Replication and Intercellular Transmission of Trypanosoma Cruzi. 58 Mol. Biochem. Parasitol. 17-24 (1993), with the exception that in some experiments, the host cells are irradiated (2400 RADs) before infection to prevent them from dividing.

For series [7], the system named is T. cruzi. The series can be described thus: Inhibition of T. cruzi in infected cells, cell line BHK. Format: cell-based. The conditions noted are these: days before cell monolayer is destroyed by infection; 20 μM, daily change of medium plus inhibitor. The procedure:
as §1, §2

A word on the IC50: it is the concentration needed to halve the response being measured. For orientation: solubility means the dissolved amount per volume that the medium holds. High values mean a readily soluble substance, low ones a poorly soluble substance. What is called aqueous solubility is the concentration that dissolves in the medium under given conditions.

In brackets after ≈: the same amount, converted by molar mass. Where a name gives a salt, the structure may show the parent alone. Read-outs that look alike come from different tables or passages of the source. *1 amine or outer side, *2 acyl side, *3 side chain or, on linkers, in order; H or OH if unused. Where a SMILES comes first, the peptide text is derived from it. [ ]: non-standard residue; d: D form. The star is where a group is joined. ξ: configuration not given here. hPhe = N[C@@H](CCc1ccccc1)C(=O)O; Morpholide = C1CN(*)CCO1; ξF = NC(Cc1ccccc1)C(=O)O; CO = O=C([*:1])[*:2]; CH2F = FC*

As for `CC(=O)N[C@@H](CC(C)C)C(=O)N[C@@H](CC(C)C)C(=O)N[C@@H](Cc1ccccc1)C(=O)COC1=CC(=O)OC1` [Acetyl-Leucyl-Leucyl-Phenylalanyl-α-(4-oxy-dihydrofuran-2-one) methyl ketone], the “concentration at which inhibitor showed activity against calpain” value in series [1] is reported as “less than 2 μM”.
On to `O=C1C=C(OCC(=O)[C@H](CCc2ccccc2)NC(=O)[C@H](Cc2ccccc2)NC(=O)N2CCOCC2)CO1` [Compound 12, N-Morpholinecarbonyl-L-phenylalanyl-L-homophenylalanyl-α-(4-oxy-dihydrofuran-2-one) methyl ketone], for which, in series [2], the half-maximal inhibitory concentration (IC50) was 10 nM. The molecule also returned a solubility in series [3] of 277 µg/mL (≈ 517 µM).
Take `CCC1OC(=O)C(OCC(=O)[C@H](CCc2ccccc2)NC(=O)[C@H](Cc2ccccc2)NC(=O)N2CCOCC2)=C1C` (stereo partly drawn) [Compound A2, N-Morpholinecarbonyl-L-phenylalanyl-L-homophenylalanyl-α-(3-oxy-5-ethyl-4-methyl 2(5H)furanone) methyl ketone]: the malarial inhibition result in series [4] is given as “particularly effective”.
`N[C@@H](CCc1ccccc1)C(=O)COC1=CC(=O)OC1` [L-Homophenyl-α-(4-oxy-dihydrofuran-2-one)methyl ketone hydrochloride] had an IC50 in series [5] of 251 nM.
Still for that read-out and setting: for `Cc1cc(OCC(=O)[C@@H](N)CCc2ccccc2)cc(=O)o1` [L-Homophenylalanyl-α-(4-oxy-(6-methyl-2-pyrone)methyl ketone] the value was 118 nM.
With `O=C(N[C@@H](CCc1ccccc1)C(=O)CF)C(Cc1ccccc1)NC(=O)N1CCOCC1` (stereo partly shown) [Mu—Phe—HPhe—CH2F, Morpholine-carbonyl-phenylalanyl-homophenylalanyl-fluoromethylketone, reference compound] ({Morpholide-CO}-[ξF]-[hPhe]-CH2F), the “Survival Time, Cell line J774” value in series [6] was at least 16 days. Further, the aqueous solubility (20° C., distilled and deionized water) was 140 µg/mL (≈ 307 µM). Also, in series [7], the “Survival Time, Cell line BHK” value was at least 16 days.
On to “benzoxycarbonyl-phenylalanyl-alanylfluoromethyl ketone [Z—Phe—Ala—CH2F]”, for which the aqueous solubility (14° C.) worked out at 45 µg/mL.

The record behind these values is patent US20020128434A1, “Alpha-(1,3-dicarbonylenol ether) methyl ketones as cysteine protease inhibitors” (priority 1993, published 2002).
